Assay results: patent US9657057B2, “Dipeptide and tripeptide epoxy ketone protease inhibitors” (Onyx Therapeutics, Inc., priority 2013, dated 2017)
Converted amounts (≈) assume the structure as drawn. Where two headings read alike, the source gives them in different places.

Legend:
LMP2 = biological target: T1, LMP2 (Homo sapiens, UniProt P28065+P40306); experiment: ProCISE proteasome subunit assay, LMP2; type: biochemical
T1 construct: endogenous in cells; host or cells: MOLT-4
Description: (§1) This assay was used to assess the inhibitory activity against each of LMP2, LMP7, MECL1, β1, β2, and β5. Briefly, test compounds were serially diluted in DMSO at 100× concentration, then diluted to 10× in aqueous hypotonic lysis buffer. Lysate from the human acute lymphoblastic leukemia cell line, MOLT-4, was treated for 1 hour at 25° C. with compound at a final 1× concentration. […] Following this, lysate was denatured in guanidine hydrochloride, and subunits bound to probe were isolated with streptavidin-conjugated sepharose beads. Individual subunits were probed with subunit-specific primary antibodies, followed by HRP-conjugated secondary antibodies. A chemiluminescent substrate was used to generate signal associated with HRP binding, which was detected on a plate reader. Luminescent signal was normalized to protein content, then, percent activity calculated relative to DMSO-treated controls to generate IC50 curves.

LMP7 = biological target: T2, LMP7 (Homo sapiens, UniProt P20618+P28062); experiment: ProCISE proteasome subunit assay, LMP7; type: biochemical; conditions: MOLT4 lysate Hu 1 h
T2 construct: endogenous in cells; host or cells: MOLT-4
In short: (§2)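 MOLT-4 cell lysate was incubated with compound for 1 h at 25° C, then a subunit-binding probe was applied; probe-bound subunits were pulled down on streptavidin beads after guanidine denaturation and detected with subunit-specific antibodies by HRP chemiluminescence. Signal was normalized to protein and expressed as percent of DMSO control to fit IC50.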

β5 = biological target: T3, β5 (Homo sapiens, UniProt P20618+P28074); experiment: ProCISE proteasome subunit assay, β5; type: biochemical; conditions: MOLT4 lysate Hu 1 h
T3 construct: endogenous in cells; host or cells: MOLT-4
In short: as §2

Solubility pH 7 = type: physicochemical; conditions: pH 7, aqueous buffer
[1] = biological target: i20S (20S immunoproteasome) (Homo sapiens, UniProt P20618+P28062); experiment: 20S proteasome assay, chymotrypsin-like activity (LLVY), i20S; type: biochemical; conditions: LLVY i20S Hu 1 h CONT: IC50 (nM), succinyl-Leu-Leu-Val-Tyr-AMC
Source text: (§3) Assay buffer consisted of TE buffer [20 mmol/L Tris (pH 8.0), 0.5 mmol/L EDTA] with (20S) or without (cell lysate) 0.03% SDS. Reactions were initiated by enzyme or lysate addition and monitored for AMC product formation at 27jC with a plate-based spectofluorometer (Tecan).

[2] = biological target: c20S (constitutive 20S proteasome) (Homo sapiens, UniProt P20618+P28074); experiment: 20S proteasome assay, chymotrypsin-like activity (LLVY), c20S; type: biochemical; conditions: LLVY c20S Hu 1 h CONT: IC50 (nM), succinyl-Leu-Leu-Val-Tyr-AMC
Source text: as §3

MECL1 = MECL1 (Homo sapiens, UniProt P40306+P49720); experiment: ProCISE proteasome subunit assay, MECL1; type: biochemical; conditions: MOLT-4 lysate, 1 hour at 25° C.
Description: as §1

β1 = β1 (Homo sapiens, UniProt P28072+Q99436); experiment: ProCISE proteasome subunit assay, β1; type: biochemical; conditions: MOLT-4 lysate, 1 hour at 25° C.
Description: as §1

β2 = β2 (Homo sapiens, UniProt P49720+Q99436); experiment: ProCISE proteasome subunit assay, β2; type: biochemical; conditions: MOLT-4 lysate, 1 hour at 25° C.
Description: as §1

[3] = ProCISE LMP2 MOLT4 lysate Hu 1 h CONT: IC50 (nM), MOLT4 lysate Hu 1 h

For `COc1ccc(C[C@H](NC(=O)[C@@H](C)NC(=O)c2ncc[nH]2)C(=O)N[C@@H](CC2CCCC2)C(=O)[C@@]2(C)CO2)cc1` [Compound C-2034, N—((R)-1-(((S)-1-(((S)-3-cyclopentyl-1-((R)-2-methyloxiran-2-yl)-1-oxopropan-2-yl)amino)-3-(4-methoxyphenyl)-1-oxopropan-2-yl)amino)-1-oxopropan-2-yl)-1H-imidazole-2-carboxamide], the IC50 (LMP2; MOLT4 lysate Hu 1 h) was 471 nM, the IC50 (LMP7) was 19.7 µM and the IC50 (β5) was > 250 µM. The solubility (Solubility pH 7) was 55.5 µg/mL (≈ 103 µM), the IC50 [1] was 19500 nM and the IC50 [2] was 64400 nM.
`COc1ccc(C[C@H](NC(=O)c2ccnc(N3CCOCC3)n2)C(=O)N[C@@H](Cc2ccccc2)C(=O)[C@@]2(C)CO2)cc1` [Compound C-3001] showed an IC50 (LMP2; MOLT4 lysate Hu 1 h) of 526 nM, an IC50 (LMP7) of 4.77 µM and an IC50 (β5) of 5.59 µM.
`COc1ccc(C[C@H](NC(=O)[C@@](C)(O)C(F)(F)F)C(=O)N[C@@H](Cc2ccccc2)C(=O)[C@@]2(C)CO2)cc1` [Compound C-3007, (R)-3,3,3-Trifluoro-2-hydroxy-N—((S)-3-(4-methoxyphenyl)-1-(((S)-1-((R)-2-methyloxiran-2-yl)-1-oxo-3-phenylpropan-2-yl)amino)-1-oxopropan-2-yl)-2-methylpropanamide] showed an IC50 (LMP2; MOLT4 lysate Hu 1 h) of 274 nM, an IC50 (LMP7) of 3.46 µM and an IC50 (β5) of 9.84 µM. The solubility (Solubility pH 7) was 86.7 µg/mL (≈ 166 µM).
For `COc1ccc(C[C@H](NC(=O)c2cccc(=O)[nH]2)C(=O)N[C@@H](Cc2ccccc2)C(=O)[C@@]2(C)CO2)cc1` [Compound C-3008, N—((S)-3-(4-Methoxyphenyl)-1-(((S)-1-((R)-2-methyloxiran-2-yl)-1-oxo-3-phenylpropan-2-yl)amino)-1-oxopropan-2-yl)-6-oxo-1,6-dihydropyridine-2-carboxamide], the IC50 (LMP2; [3]) was 109 nM, the IC50 (LMP2; ProCISE, MOLT-4 lysate, 1 hour at 25° C., read-out: LMP2) was 109 nM and the IC50 (MECL1) was > 250 µM. The IC50 (β1) was 99.2 µM and the IC50 (β2) was > 250 µM.
In the case of `COc1ccc(C[C@H](NC(=O)[C@H]2CCCC(=O)N2)C(=O)N[C@@H](Cc2ccccc2)C(=O)[C@@]2(C)CO2)cc1` [Compound C-3009, (R)—N—((S)-3-(4-Methoxyphenyl)-1-(((S)-1-((R)-2-methyloxiran-2-yl)-1-oxo-3-phenylpropan-2-yl)amino)-1-oxopropan-2-yl)-6-oxopiperidine-2-carboxamide], the IC50 (LMP2; MOLT4 lysate Hu 1 h) is reported as 517 nM, the IC50 (LMP7) is reported as 4.57 µM and the IC50 (β5) is reported as 8.29 µM. The IC50 [1] was 9890 nM and the IC50 [2] was 87800 nM.
Compound `COc1ccc(C[C@H](NC(=O)c2cccc(=O)[nH]2)C(=O)N[C@@H](CC2CCCC2)C(=O)[C@@]2(C)CO2)cc1` [Compound C-3014, N—((S)-1-(((S)-3-Cyclopentyl-1-((R)-2-methyloxiran-2-yl)-1-oxopropan-2-yl)amino)-3-(4-methoxyphenyl)-1-oxopropan-2-yl)-6-oxo-1,6-dihydropyridine-2-carboxamide] has an IC50 (LMP2; MOLT4 lysate Hu 1 h) of 34.9 nM and a solubility (Solubility pH 7) of 69.4 µg/mL (≈ 140 µM).
`COc1ccc(C[C@H](NC(=O)c2cccc(=O)[nH]2)C(=O)N[C@@H](CC2=CCCC2)C(=O)[C@@]2(C)CO2)cc1` [Compound C-3015, N—((S)-1-(((S)-3-(Cyclopent-1-en-1-yl)-1-((R)-2-methyloxiran-2-yl)-1-oxopropan-2-yl)amino)-3-(4-methoxyphenyl)-1-oxopropan-2-yl)-6-oxo-1,6-dihydropyridine-2-carboxamide] showed an IC50 (LMP2; MOLT4 lysate Hu 1 h) of 37.6 nM and a solubility (Solubility pH 7) of 143 µg/mL (≈ 291 µM).
`C[C@H](NC(=O)c1cccc(=O)[nH]1)C(=O)N[C@@H](Cc1ccccc1)C(=O)[C@@]1(C)CO1` [Compound C-3016, N—((S)-1-(((S)-1-((R)-2-Methyloxiran-2-yl)-1-oxo-3-phenylpropan-2-yl)amino)-1-oxopropan-2-yl)-6-oxo-1,6-dihydropyridine-2-carboxamide] gave an IC50 (LMP2; MOLT4 lysate Hu 1 h) of 55 nM and a solubility (Solubility pH 7) of 7520 µg/mL (≈ 18900 µM).
`C[C@]1(C(=O)[C@H](Cc2ccccc2)NC(=O)[C@H](CO)NC(=O)c2cccc(=O)[nH]2)CO1` [Compound C-3017, N—((S)-3-Hydroxy-1-(((S)-1-((R)-2-methyloxiran-2-yl)-1-oxo-3-phenylpropan-2-yl)amino)-1-oxopropan-2-yl)-6-oxo-1,6-dihydropyridine-2-carboxamide] gave an IC50 (LMP2; [3]) of 33 nM and a solubility (Solubility pH 7) of 6640 µg/mL (≈ 16100 µM).
Compound `C[C@H](NC(=O)c1cccc(=O)[nH]1)C(=O)N[C@@H](CC1CCCC1)C(=O)[C@@]1(C)CO1` [Compound C-3018, N—((S)-1-(((S)-3-Cyclopentyl-1-((R)-2-methyloxiran-2-yl)-1-oxopropan-2-yl)amino)-1-oxopropan-2-yl)-6-oxo-1,6-dihydropyridine-2-carboxamide] has an IC50 (LMP2; MOLT4 lysate Hu 1 h) of 24.9 nM and a solubility (Solubility pH 7) of 516 µg/mL (≈ 1320 µM).
`C[C@]1(C(=O)[C@H](CC2CCCC2)NC(=O)[C@H](CO)NC(=O)c2cccc(=O)[nH]2)CO1` [Compound C-3019, N—((S)-1-(((S)-3-Cyclopentyl-1-((R)-2-methyloxiran-2-yl)-1-oxopropan-2-yl)amino)-3-hydroxy-1-oxopropan-2-yl)-6-oxo-1,6-dihydropyridine-2-carboxamide] gave an IC50 (LMP2; MOLT4 lysate Hu 1 h) of 16.8 nM and a solubility (Solubility pH 7) of 639 µg/mL (≈ 1580 µM).
